Reference: publication PMC11206519, “Multi-Endpoint Toxicological Assessment of Chrysin Loaded Oil-in-Water Emulsion System in Different Biological Models” (Nanomaterials, 2024)
“And” between values parts separate entries of the source, which are not always exact repeats. Equal entries are not always repeated.

How the values were obtained:
[1] = system: S. typhimurium TA 100; assay: Ames test, mutagenicity; assay type: cell-based, Salmonella Typhimurium; details: positive control
Experimental: (§1) The S. typhimurium strains TA 98 and TA 100 were used to detect frameshift and base-pair mutations, respectively. […] Then, they were poured onto minimal glucose agar containing a trace amount of histidine, following incubation at 37 °C for 48 h. Then, the revertant colonies were counted and compared with the negative control. If the number of revertant colonies in the tested sample treatment is at least twice that of the negative control (spontaneous revertant colonies), it is considered a mutagen.

[2] = system: S. typhimurium TA 98; assay: Ames test, mutagenicity; assay type: cell-based, Salmonella Typhimurium; details: +S9; 0.5 µg/plate, positive control
Experimental: as §1

[3] = system: D. melanogaster trans-heterozygous mwh+/+flr3 larvae of the ST cross; assay: SMART wing spot test, anti-mutagenicity, ST cross
Experimental: (§2) The somatic mutation and recombination test, or the wing spot test, using D. melanogaster was employed as an in vivo system to assess the mutagenicity and anti-mutagenicity of chrysin-ES. Two different crosses were conducted: (i) a standard cross (ST) and (ii) a high bioactivation cross (HB). The standard cross larvae were obtained from virgin female of flr3/TM3, Ser crossed with males of mwh/mwh, while the HB cross larvae expressing cytochrome P450 enzymes involved in xenobiotic biotransformation were obtained from virgin females of ORR/ORR; flr^3/In (3LR) TM3, ri p^psep l (3)89Aa bx^34e e Bd^s crossed with males of mwh/mwh. The flies were cultured at a constant temperature of 25 ± 1 °C and 60–70% RH at photoperiod 12:12 (light/dark). To evaluate the mutagenicity of chrysin and chrysin-ES, a hundred larva F1 progenies derived from the above crossing were fed with instant Drosophila medium (Formula 4-24®), Carolina, Burlington, NC, USA) containing chrysin or chrysin-ES (20–120 µg/mL). DI was used as a negative control, while 20 mM urethane (URE) was used as a positive control. The larvae were reared on each medium until pupation at 25 °C. After that, forty wings of surviving flies in each group were collected for mutant analysis. The mutant spots on the wings, including small single spots, large single spots, and twin spots, were counted. The statistical significance was calculated as previously described by Frei and Würgler.
(§3) Furthermore, the anti-mutagenicity of the samples was performed by a similar procedure as mentioned above.

[4] = system: D. melanogaster trans-heterozygous mwh+/+flr3 larvae of the HB cross; assay: SMART wing spot test, anti-mutagenicity, HB cross
Experimental: as §2, §3

[5] = system: S. typhimurium TA100; assay: Ames test, anti-mutagenicity; details: standard mutagen alone, 0.05 µg/plate, +S9
Experimental: (§4) Furthermore, the anti-mutagenicity of the samples was performed by a similar procedure, as mentioned above. […] The percentage inhibition (decrease revertant colony number) was calculated as in the following equation:Anti-mutagenicity (%) = [1 − (b/a)] × 100 • a = revertant colony number induced via standard mutagen (positive control). • b = revertant colony number induced by standard mutagen in the presence of each sample treatment.
(§5) The percent of inhibition between 0–20%, 21–40%, 41–60%, and higher than 60% indicate negligible, weak, moderate, and strong anti-mutagenicity, respectively.

[6] = system: S. typhimurium TA98; assay: Ames test, anti-mutagenicity; details: standard mutagen alone, 0.1 µg/plate, +S9
Experimental: as §4, §5

[7] = system: D. melanogaster trans-heterozygous mwh+/+flr3 larvae of the ST cross; assay: SMART wing spot test, mutagenicity, ST cross; assay type: in vivo, Drosophila melanogaster; details: 20 mM, positive control
Experimental: (§6) The somatic mutation and recombination test, or the wing spot test, using D. melanogaster was employed as an in vivo system to assess the mutagenicity and anti-mutagenicity of chrysin-ES. Two different crosses were conducted: (i) a standard cross (ST) and (ii) a high bioactivation cross (HB) [18]. The standard cross larvae were obtained from virgin female of flr3/TM3, Ser crossed with males of mwh/mwh, while the HB cross larvae expressing cytochrome P450 enzymes involved in xenobiotic biotransformation were obtained from virgin females of ORR/ORR; flr^3/In (3LR) TM3, ri p^psep l (3)89Aa bx^34e e Bd^s crossed with males of mwh/mwh. The flies were cultured at a constant temperature of 25 ± 1 °C and 60–70% RH at photoperiod 12:12 (light/dark). To evaluate the mutagenicity of chrysin and chrysin-ES, a hundred larva F1 progenies derived from the above crossing were fed with instant Drosophila medium (Formula 4-24®), Carolina, Burlington, NC, USA) containing chrysin or chrysin-ES (20–120 µg/mL). DI was used as a negative control, while 20 mM urethane (URE) was used as a positive control. The larvae were reared on each medium until pupation at 25 °C. After that, forty wings of surviving flies in each group were collected for mutant analysis. The mutant spots on the wings, including small single spots, large single spots, and twin spots, were counted.

[8] = system: D. melanogaster trans-heterozygous mwh+/+flr3 larvae of the HB cross; assay: SMART wing spot test, mutagenicity, HB cross; assay type: in vivo, Drosophila melanogaster; details: 20 mM, positive control
Experimental: as §6

[9] = NMU alone (sodium nitrite 36 mM: methylurea 10 mM)
[10] = Nitrite alone (sodium nitrite 36 mM)

## Nc1ccc2cc3ccccc3cc2c1 [2-AA, 2-Aminoanthracene, reference compound]
[1]; +S9, 0.5 µg/plate
  Number of Revertant Colonies: 487 ± 29
[2]
  Number of Revertant Colonies: 459 ± 44

## NC(=O)C(=Cc1ccc([N+](=O)[O-])o1)c1ccco1 [AF-2, 2-(2-Furyl)-3-(5-nitro-2-furyl) acrylamide, reference compound]
[1]; −S9, 0.1 µg/plate
  Number of Revertant Colonies: 439 ± 30

## CCOS(C)(=O)=O [EMS, ethyl methanesulfonate, reference compound]
[3]; EMS 5 mM alone
  Mutant spots per individual (number of spots), Large Single: 1.75 (70)
  Mutant spots per individual (number of spots), Small Single: 5.60 (224)
  Mutant spots per individual (number of spots), Total: 7.80 (312)
  Mutant spots per individual (number of spots), Twin: 0.45 (18)
[3]; EMS 5 mM alone, vs DI
  Statistical diagnosis, Large Single: +
  Statistical diagnosis, Small Single: +
  Statistical diagnosis, Total: +
  Statistical diagnosis, Twin: +
[4]; EMS 5 mM alone
  Mutant spots per individual (number of spots), Large Single: 0.40 (16)
  Mutant spots per individual (number of spots), Small Single: 10.00 (400)
  Mutant spots per individual (number of spots), Total: 10.40 (416)
  Mutant spots per individual (number of spots), Twin: 0 (0)
[4]; EMS 5 mM alone, vs DI
  Statistical diagnosis, Large Single: +
  Statistical diagnosis, Small Single: +

## Cn1c(N)nc2c3cccnc3ccc21 [IQ, 2-Amino-3-methylimidazo(4,5-f) quinoline, reference compound]
[5]
  Number of Revertant Colonies: 730 ± 39

## CNC(N)=O [Methylurea, methylurea, reference compound]
[3]; in vivo
  Statistical diagnosis, Small Single: −
  Statistical diagnosis, Total: −
[4]; in vivo
  Statistical diagnosis, Small Single: −

## CN(N=O)C(N)=O [NMU, N-nitrosomethylurea, reference compound]
[3]; [9]
  Mutant spots per individual (number of spots), Large Single: 0.10 (4)
  Mutant spots per individual (number of spots), Small Single: 1.70 (68)
  Mutant spots per individual (number of spots), Total: 2.00 (80)
  Mutant spots per individual (number of spots), Twin: 0.20 (8)
[3]; NMU alone, vs DI
  Statistical diagnosis, Small Single: +
  Statistical diagnosis, Total: +
  Statistical diagnosis, Twin: +
[4]; [9]
  Mutant spots per individual (number of spots), Large Single: 0.40 (16)
  Mutant spots per individual (number of spots), Small Single: 1.43 (57)
  Mutant spots per individual (number of spots), Total: 1.93 (77)
  Mutant spots per individual (number of spots), Twin: 0.10 (4)
[4]; NMU alone, vs DI
  Statistical diagnosis, Large Single: +
  Statistical diagnosis, Small Single: −
  Statistical diagnosis, Total: +

## O=N[O-].[Na+] [Nitrite, sodium nitrite, reference compound]
[3]; [10]
  Mutant spots per individual (number of spots), Large Single: 0 (0)
  Mutant spots per individual (number of spots), Small Single: 0.05 (2)
  Mutant spots per individual (number of spots), Total: 0.08 (3)
  Mutant spots per individual (number of spots), Twin: 0.03 (1)
[3]; Nitrite alone, vs DI
  Statistical diagnosis, Small Single: −
  Statistical diagnosis, Total: −
[4]; [10]
  Mutant spots per individual (number of spots), Large Single: 0.03 (1)
  Mutant spots per individual (number of spots), Small Single: 0.25 (10)
  Mutant spots per individual (number of spots), Total: 0.28 (11)
  Mutant spots per individual (number of spots), Twin: 0 (0)
[4]; Nitrite alone, vs DI
  Statistical diagnosis, Small Single: −

## Cn1c(N)nc2ncc(-c3ccccc3)cc21 [PhIP, 2-amino-1-methyl-6-phenylimidazo (4,5-b) pyridine, reference compound]
[6]
  Number of Revertant Colonies: 400 ± 11

## CCOC(N)=O [URE, urethane, reference compound]
[7]
  Mutant spots per individual (number of spots), Large Single: 0.08 (3)
  Mutant spots per individual (number of spots), Small Single: 3.73 (149)
  Mutant spots per individual (number of spots), Total Spots: 3.80 and 3.80 (152)
  Mutant spots per individual (number of spots), Twin: 0 (0)
[7]; vs DI
  Statistical diagnosis, Large Single: +
  Statistical diagnosis, Small Single: +
  Statistical diagnosis, Total Spots: +
[8]
  Mutant spots per individual (number of spots), Large Single: 3.10 (62)
  Mutant spots per individual (number of spots), Small Single: 10.10 (202)
  Mutant spots per individual (number of spots), Total Spots: 14.50 and 14.50 (290)
  Mutant spots per individual (number of spots), Twin: 1.30 (26)
[8]; vs DI
  Statistical diagnosis, Large Single: +
  Statistical diagnosis, Small Single: +
  Statistical diagnosis, Total Spots: +
  Statistical diagnosis, Twin: +
